Key:
[1] = molecular target: RAC-alpha serine/threonine-protein kinase (Homo sapiens) (UniProt P31749); test: Binding affinity for protein kinase B (Akt) PH domain
[2] = molecular target: RAC-alpha serine/threonine-protein kinase (Homo sapiens) (UniProt P31749); test: Binding activity for protein kinase B (Akt) PH domain
[3] = molecular target: RAC-alpha serine/threonine-protein kinase (Homo sapiens) (UniProt P31749); test: Inhibition of binding to Protein kinase B (Akt) PH domain; parameters: scale not given: the % may be the effect or the level left
[4] = molecular target: RAC-alpha serine/threonine-protein kinase (Homo sapiens) (UniProt P31749); test: Inhibition of protein kinase B (Akt) PH domain

Sequence of RAC-alpha serine/threonine-protein kinase (Homo sapiens) (P31749 whole entry, the tested form may be a part): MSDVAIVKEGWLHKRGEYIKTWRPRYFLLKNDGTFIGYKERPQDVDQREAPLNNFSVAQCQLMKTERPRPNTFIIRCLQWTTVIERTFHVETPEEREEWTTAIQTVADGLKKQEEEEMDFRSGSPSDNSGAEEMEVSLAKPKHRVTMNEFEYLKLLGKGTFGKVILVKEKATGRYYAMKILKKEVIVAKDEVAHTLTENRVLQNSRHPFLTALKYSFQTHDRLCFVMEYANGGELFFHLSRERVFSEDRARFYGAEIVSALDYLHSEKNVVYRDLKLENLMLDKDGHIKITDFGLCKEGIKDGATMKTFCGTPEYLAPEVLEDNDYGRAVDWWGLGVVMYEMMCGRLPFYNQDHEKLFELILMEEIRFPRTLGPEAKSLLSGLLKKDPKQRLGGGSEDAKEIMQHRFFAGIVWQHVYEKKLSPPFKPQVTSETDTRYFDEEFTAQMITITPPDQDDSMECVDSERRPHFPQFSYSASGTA

| Compound | Ratio [1] | Activity [2] | Activity [3] | Ratio [4] |
| --- | --- | --- | --- | --- |
| CCCCCCCCCCCCCCCCCCCC(=O)OC(COC(=O)CCCCCCCCCCCCCCCCC)COP(=O)(O)OC1C(O)CC(OP(=O)(O)O)C(OP(=O)(O)O)C1O (configuration not stated) | 0.57 | 100% | – | – |
| CCCCCCCCCCCCCCCCCCCC(=O)OC(COC(=O)CCCCCCCCCCCCCCCCC)COP(=O)(O)OC1C(O)C(OP(=O)(O)O)C(OP(=O)(O)O)C(OP(=O)(O)O)C1O (configuration not stated) | 0.4 | – | -35% | – |
| CCCCCCCCCCCCCCCCCCOC[C@H](COC(=O)O[C@@H]1[C@H](O)[C@@H](CO)[C@@H](O)[C@H](O)[C@@H]1O)OC (stereo in doubt; 2) | – | – | – | 32 |
| CCCCCCCCCCCCCCCCCCCC(=O)OC(COC(=O)CCCCCCCCCCCCCCCCC)COP(=O)(O)OC1C(O)CCC(OP(=O)(O)O)C1O (configuration not stated) | – | 13% | – | – |
| CCCCCCCCCCCCCCCCCCOC[C@H](COC(=O)O[C@@H]1[C@H](O)[C@@H](CO)[C@@H](O)[C@H](O)[C@@H]1O)OC (stereo in doubt; 1) | – | – | – | 5 |
